# Data as given in patent US20200205401A1, “LACTONES AS SOLVENTS IN AGROCHEMICAL FORMULATIONS” (priority 2017, published 2020).
# Where “and” joins values, the source holds several entries; their conditions need not be identical. Equal values may be shown once. Where a name gives a salt, the structure may show the parent alone. Read-outs that look alike come from different tables or passages of the source.
# Experiments:
# [1] = Azoxystrobin dissolved in organic liquid, diluted with 20 volumes of water, visual assessment of layers or crystals; type: physicochemical; details: water 20 times the solvent volume, assessed visually at 48 hours
# Method: Azoxystrobin was dissolved in a range of organic liquids, some of which are known to be solvents for agrochemicals, at room temperature and allowed to equilibrate. A measured quantity of water was added and each mixture was shaken. The volume of water was 20 times greater than the volume of organic liquid/solvent. After settling the samples were assessed as being either (i) split into two layers with no evidence of pesticide crystalisation, or (ii) identified as a single layer where the pesticide had precipitated out as crystals.
# Samples were assessed after 24 and 48 hours. The log P octanol values for the solvents have been taken from the literature or, where this value was not available, were estimated using the program ProPred™ (ICAS ProPred™, KT Consortium, DTU Kemiteknik, Lyngby, Denmark). Where values were estimated, a simple check was carried out using measuring cylinders with 50/50 volumes of octanol and water. Solvent was added to the cylinder until a clear observation of the effect of the addition was apparent.
# [2] = solvents of Table 2/3; literature, or estimated with ProPred where not available; cited from earlier work
# [3] = Azoxystrobin dissolved in organic liquid, diluted with 20 volumes of water, visual assessment of layers or crystals; type: physicochemical
# [4] = log P octanol by octanol saturated chromatography column; type: physicochemical; details: octanol/water (octanol saturated chromatography column); 25° C., pH 6.98; read-out: octanol water partition coefficient (log P octanol)
# Text: Samples of gamma caprolactone were examined using an octanol saturated chromatography column.
# [5] = 5% w/w solutions of agrochemicals in solvent diluted into water 20:1, appearance; type: physicochemical; details: for APPEARANCE OF FORMULATION, Difenoconazole: 5% w/w difenoconazole in solvent; for APPEARANCE OF FORMULATION, Difenoconazole / APPEARANCE OF FORMULATION, Fludioxonil / APPEARANCE OF FORMULATION, Mandipropamid / APPEARANCE OF FORMULATION, Pinoxaden: diluted into water 20:1; for APPEARANCE OF FORMULATION, Fludioxonil: 5% w/w fludioxonil in solvent; for APPEARANCE OF FORMULATION, Mandipropamid: 5% w/w mandipropamid in solvent; for APPEARANCE OF FORMULATION, Pinoxaden: 5% w/w pinoxaden in solvent; for appearance with each of the agrochemical active ingredients: mandipropamid, fludioxonil, pinoxaden, difenoconazole, 5% w/w, diluted 20:1
# Method: In this example several pesticidally active agrochemical ingredients (mandipropamid, fludioxonil, pinoxaden, and difenoconazole) were dissolved in each of the three solvents to give solutions of 5% w/w. Each solution was then diluted into water to form a 20:1 mixture.
# [6] = Aqueous solubility of gamma caprolactone by HPLC; type: physicochemical; details: calculated mean of a set of six measurements
# Method: The aqueous solubility of gamma caprolactone was measured using HPLC chromatography. Several samples of the lactone were equilibrated at room temperature with an equal volume of water. The samples were left for two weeks then analysed by HPLC.
# [7] = 20° C.; cited from earlier work
Molecule,APPEARANCE (azoxystrobin solution in solvent after addition of water) [1],logP octanol [2],further results
CC(=O)c1ccccc1 [Acetophenone],2 layer,–,–
OCc1ccccc1 [Benzyl alcohol],2 layer,–,–
CCCCOC(=O)c1ccccc1 [Butyl benzoate],2 layer,–,–
OC1CCCCC1 [Cyclohexanol],2 layer,–,–
CCOC(=O)/C=C/C(=O)OCC [Diethyl fumarate],2 layer,–,–
CCCCCCOCCOCCO [Diethylene glycol hexyl ether],2 layer,2.16,–
CC(O)C(=O)N(C)C (stereo not drawn) [Dimethyl lactamide],Crystallised,−0.22,–
COC(C)COC(C)CO (stereo not drawn) [Dipropylene glycol monomethyl ether],Crystallised,–,–
OCCO [Ethylene glycol],–,–,APPEARANCE (azoxystrobin solution in solvent after addition of water) [3]: Crystallised
COC(=O)c1ccccc1 [Methyl benzoate],2 layer,1.85,–
COC(=O)C(C)O (stereo not drawn) [Methyl lactate],Crystallised,–,–
CCCOC(=O)c1ccccc1 [Propyl benzoate],2 layer,–,–
CCCOC(=O)C(C)O (stereo not drawn) [Propyl lactate],2 layer,–,–
CC(=O)OCC(C)OC(C)=O (stereo not drawn) [Propylene glycol diacetate],Crystallised,0.94,–
CCCCOCC(C)O (stereo not drawn) [Propylene glycol n-butyl ether],2 layer,–,–
CC(=O)OCC(COC(C)=O)OC(C)=O [Triacetin],2 layer,–,–
CCOP(=O)(OCC)OCC [Triethyl phosphate],Crystallised,0.28,–
O=C1CCCO1 [γ-Butyrolactone],Crystallised,−0.60,–
"CCC1CCC(=O)O1 (stereo not drawn) [γ-Caprolactone, 5-ethyltetrahydrofuran-2-one]",–,–,"chromatographic logP [4]: 0.34; APPEARANCE OF FORMULATION, Difenoconazole [5]: 2 layers; APPEARANCE OF FORMULATION, Fludioxonil [5]: 2 layers; APPEARANCE OF FORMULATION, Mandipropamid [5]: 2 layer; APPEARANCE OF FORMULATION, Pinoxaden [5]: 2 layers; appearance with each of the agrochemical active ingredients [5]: two-layer system; appearance after further 100-fold dilution in water [3]: two layers still did not become miscible; Aqueous solubility, Mean [6]: 10.93 % w/w and 11.01 % w/w"
CC1CCC(=O)O1 (stereo not drawn) [γ-Valerolactone],Crystallised,0.21,–
O=C1CCCCO1 [δ-Valerolactone],Crystallised,−0.26,–
O=C1CCCCCO1 [ε-Caprolactone],Crystallised,0.70,–
Butylene carbonate,2 layer,1.21,–
Diethylene carbonate,–,–,APPEARANCE (azoxystrobin solution in solvent after addition of water) [3]: 2 layer
Hexylene glycol,Crystallised,–,"APPEARANCE OF FORMULATION, Difenoconazole [5]: Crystallised; APPEARANCE OF FORMULATION, Fludioxonil [5]: Crystallised; APPEARANCE OF FORMULATION, Mandipropamid [5]: Crystallised; APPEARANCE OF FORMULATION, Pinoxaden [5]: Crystallised; appearance with each of the agrochemical active ingredients [5]: crystallisation; miscibility with water [7]: fully miscible"
